Assay results from the supplement of paper PMC10307832.

What was measured:
Test in all cases: relative viability (nuclei count vs DMSO), 5 days (fraction); higher = more cells survive
Alisertib + Trametinib = compound: COc1cc(Nc2ncc3c(n2)-c2ccc(Cl)cc2C(c2c(F)cccc2OC)=NC3)ccc1C(=O)O [Alisertib] + CC(=O)Nc1cccc(-n2c(=O)n(C3CC3)c(=O)c3c(Nc4ccc(I)cc4F)n(C)c(=O)c(C)c32)c1 [Trametinib] (partner 0.02 µM)
Outline: (§1)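 Lung cancer cell lines in 1536-well plates were dosed by pin tool the day after seeding, either with one drug alone or with a fixed anchor-drug dose plus five library-drug doses (not always all listed) in √10 steps. After 5 days, cells were fixed and their nuclei stained in one step (final 0.05% Triton X-100, 1% formaldehyde, 1 ug/ml Hoechst), then counted on 4× images. Relative viability is the nuclei count in treated wells divided by that in vehicle wells. Values are medians of duplicate plates.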

Alisertib + OSI-027 = compound: COc1cc(Nc2ncc3c(n2)-c2ccc(Cl)cc2C(c2c(F)cccc2OC)=NC3)ccc1C(=O)O [Alisertib] + COc1cccc2cc(-c3nc([C@H]4CC[C@H](C(=O)O)CC4)n4ncnc(N)c34)[nH]c12 [OSI-027] (partner 0.5 µM)
Outline: as §1

Alisertib + Lapatinib = compound: COc1cc(Nc2ncc3c(n2)-c2ccc(Cl)cc2C(c2c(F)cccc2OC)=NC3)ccc1C(=O)O [Alisertib] + CS(=O)(=O)CCNCc1ccc(-c2ccc3ncnc(Nc4ccc(OCc5cccc(F)c5)c(Cl)c4)c3c2)o1 [Lapatinib] (partner 2 µM)
Outline: as §1

Alisertib + Linsitinib = compound: COc1cc(Nc2ncc3c(n2)-c2ccc(Cl)cc2C(c2c(F)cccc2OC)=NC3)ccc1C(=O)O [Alisertib] + C[C@]1(O)C[C@@H](c2nc(-c3ccc4ccc(-c5ccccc5)nc4c3)c3c(N)nccn32)C1 [Linsitinib] (partner 1 µM)
Outline: as §1

Cell Line	relative viability (Alisertib + Trametinib; first compound 0.005 µM)	relative viability (Alisertib + Trametinib; first compound 0.01581 µM)	relative viability (Alisertib + Trametinib; first compound 0.05 µM)	relative viability (Alisertib + Trametinib; first compound 0.1581 µM)	relative viability (Alisertib + Trametinib; first compound 0.5 µM)	relative viability (Alisertib + OSI-027; first compound 0.005 µM)	relative viability (Alisertib + OSI-027; first compound 0.01581 µM)	relative viability (Alisertib + OSI-027; first compound 0.05 µM)	relative viability (Alisertib + OSI-027; first compound 0.1581 µM)	relative viability (Alisertib + OSI-027; first compound 0.5 µM)	relative viability (Alisertib + Lapatinib; first compound 0.005 µM)	relative viability (Alisertib + Lapatinib; first compound 0.01581 µM)	relative viability (Alisertib + Lapatinib; first compound 0.05 µM)	relative viability (Alisertib + Lapatinib; first compound 0.1581 µM)	relative viability (Alisertib + Lapatinib; first compound 0.5 µM)	relative viability (Alisertib + Linsitinib; first compound 0.005 µM)	relative viability (Alisertib + Linsitinib; first compound 0.01581 µM)	relative viability (Alisertib + Linsitinib; first compound 0.05 µM)	relative viability (Alisertib + Linsitinib; first compound 0.1581 µM)	relative viability (Alisertib + Linsitinib; first compound 0.5 µM)
NCI-H1666	0.839	0.738	0.679	0.612	0.501	0.7	0.7	0.592	0.494	0.367	0.672	0.451	0.436	0.28	0.236	0.815	0.812	0.41	0.317	0.253
NCI-H1734	0.678	0.73	0.381	0.238	0.163	0.562	0.436	0.296	0.277	0.18	0.905	0.746	0.404	0.264	0.175	0.869	0.86	0.469	0.334	0.213
NCI-H1755	0.742	0.712	0.474	0.426	0.305	0.638	0.645	0.541	0.341	0.27	0.946	0.945	0.833	0.299	0.316	1	0.947	0.62	0.5	0.271
NCI-H1792	0.413	0.43	0.291	0.0949	0.072	0.665	0.622	0.399	0.257	0.178	0.847	0.875	0.61	0.215	0.0684	0.546	0.372	0.177	0.076	0.0631
NCI-H1793	0.373	0.285	0.192	0.207	0.188	0.257	0.149	0.213	0.193	0.149	0.887	0.376	0.41	0.22	0.27	0.811	0.923	0.373	0.276	0.197
NCI-H1915	0.303	0.303	0.241	0.201	0.138	0.507	0.473	0.374	0.278	0.238	0.787	0.821	0.606	0.305	0.253	0.984	0.948	0.504	0.354	0.224
NCI-H1944	0.414	0.408	0.272	0.251	0.173	0.375	0.454	0.393	0.196	0.175	0.769	0.829	0.764	0.36	0.188	1.23	1.33	0.971	0.508	0.265
NCI-H1975	0.303	0.33	0.195	0.241	0.169	0.582	0.715	0.431	0.192	0.143	0.78	0.808	0.457	0.234	0.174	0.917	0.861	0.484	0.331	0.188
NCI-H1993	0.493	0.513	0.442	0.404	0.455	0.55	0.46	0.435	0.547	0.512	0.81	0.694	0.537	0.539	0.5	0.685	0.659	0.606	0.613	0.578
NCI-H2009	0.272	0.28	0.287	0.136	0.138	0.497	0.587	0.334	0.233	0.152	0.863	0.76	0.355	0.255	0.319	1.24	1.14	0.672	0.427	0.213
NCI-H2023	0.623	0.435	0.289	0.123	0.124	0.333	0.324	0.317	0.162	0.0743	0.848	0.602	0.41	0.135	0.0899	0.653	0.505	0.355	0.285	0.108
NCI-H2085	0.505	0.496	0.264	0.183	0.246	0.591	0.746	0.469	0.222	0.235	0.752	0.692	0.422	0.306	0.323	0.876	0.85	0.516	0.389	0.281
NCI-H2087	0.243	0.221	0.149	0.134	0.0971	0.542	0.521	0.204	0.111	0.098	1.16	0.724	0.245	0.188	0.183	0.866	0.669	0.276	0.236	0.228
NCI-H2126	0.563	0.57	0.348	0.281	0.238	0.721	0.696	0.588	0.318	0.36	0.688	0.754	0.713	0.408	0.312	0.709	0.752	0.467	0.342	0.256
NCI-H2228	0.565	0.24	0.237	0.121	0.113	0.589	0.466	0.27	0.0993	0.115	0.731	0.562	0.182	0.115	0.209	0.55	0.936	0.317	0.12	0.095
NCI-H2347	0.281	0.273	0.286	0.271	0.237	0.373	0.346	0.373	0.377	0.282	0.815	0.911	0.877	0.738	0.531	0.967	0.954	0.812	0.729	0.478
